Measured values reported in PMC2631127 (Acta Crystallographica Section D: Biological Crystallography, 2008).

Columns and labels:
[1] = target: human homolog of mouse Rieske-type ferredoxin (HRF) (Homo sapiens, UniProt Q8TAC1); experiment: optical absorption spectrum of purified protein; type: binding; details: bound as purified
[2] = target: T4moF, bacterial oxidoreductase (Ectopseudomonas mendocina, UniProt Q03304); experiment: reduction of MRF followed at […] nm, anaerobic; type: biochemical; details: electron acceptor MRF; 4 nM T4moF; 1 mM NADH
Sequence of T4moF, bacterial oxidoreductase (Q03304 whole entry): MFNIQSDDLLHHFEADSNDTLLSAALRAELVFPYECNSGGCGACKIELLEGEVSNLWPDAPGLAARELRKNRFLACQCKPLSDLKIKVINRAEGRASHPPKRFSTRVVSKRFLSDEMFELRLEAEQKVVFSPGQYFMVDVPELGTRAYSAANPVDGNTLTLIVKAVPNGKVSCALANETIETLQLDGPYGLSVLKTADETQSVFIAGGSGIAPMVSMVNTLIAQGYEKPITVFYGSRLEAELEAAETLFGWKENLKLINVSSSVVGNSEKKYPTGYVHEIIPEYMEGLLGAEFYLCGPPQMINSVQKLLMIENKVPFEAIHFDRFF

Sequence of human homolog of mouse Rieske-type ferredoxin (HRF) (Q8TAC1 2-157 limits assumed): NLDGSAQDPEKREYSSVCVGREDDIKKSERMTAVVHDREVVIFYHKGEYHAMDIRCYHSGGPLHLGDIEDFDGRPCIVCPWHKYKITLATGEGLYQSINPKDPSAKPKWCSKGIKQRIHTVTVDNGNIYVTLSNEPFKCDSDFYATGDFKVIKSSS

SMILES | optical absorption spectrum of purified protein [1] | reduction of MRF followed at 460 nm, anaerobic [2]
[S]1[Fe][S][Fe]1 [[2Fe–2S] cluster] | Expression and purification of HRF following the same protocol resulted in similar purity and [2Fe–2S] | –
NC(=O)C1=CN([C@@H]2O[C@H](COP(=O)(O)OP(=O)(O)OC[C@H]3O[C@@H](n4cnc5c(N)ncnc54)[C@H](O)[C@@H]3O)[C@@H](O)[C@H]2O)C=CC1 [NADH] | – | measured at multiple MRF concentrations in the presence of saturating NADH
